Structures are written as SMILES.

The target in this experiment is T1, Solute carrier family 12 member 5 (Homo sapiens, UniProt Q9H2X9).
T1 sequence (Q9H2X9 whole entry): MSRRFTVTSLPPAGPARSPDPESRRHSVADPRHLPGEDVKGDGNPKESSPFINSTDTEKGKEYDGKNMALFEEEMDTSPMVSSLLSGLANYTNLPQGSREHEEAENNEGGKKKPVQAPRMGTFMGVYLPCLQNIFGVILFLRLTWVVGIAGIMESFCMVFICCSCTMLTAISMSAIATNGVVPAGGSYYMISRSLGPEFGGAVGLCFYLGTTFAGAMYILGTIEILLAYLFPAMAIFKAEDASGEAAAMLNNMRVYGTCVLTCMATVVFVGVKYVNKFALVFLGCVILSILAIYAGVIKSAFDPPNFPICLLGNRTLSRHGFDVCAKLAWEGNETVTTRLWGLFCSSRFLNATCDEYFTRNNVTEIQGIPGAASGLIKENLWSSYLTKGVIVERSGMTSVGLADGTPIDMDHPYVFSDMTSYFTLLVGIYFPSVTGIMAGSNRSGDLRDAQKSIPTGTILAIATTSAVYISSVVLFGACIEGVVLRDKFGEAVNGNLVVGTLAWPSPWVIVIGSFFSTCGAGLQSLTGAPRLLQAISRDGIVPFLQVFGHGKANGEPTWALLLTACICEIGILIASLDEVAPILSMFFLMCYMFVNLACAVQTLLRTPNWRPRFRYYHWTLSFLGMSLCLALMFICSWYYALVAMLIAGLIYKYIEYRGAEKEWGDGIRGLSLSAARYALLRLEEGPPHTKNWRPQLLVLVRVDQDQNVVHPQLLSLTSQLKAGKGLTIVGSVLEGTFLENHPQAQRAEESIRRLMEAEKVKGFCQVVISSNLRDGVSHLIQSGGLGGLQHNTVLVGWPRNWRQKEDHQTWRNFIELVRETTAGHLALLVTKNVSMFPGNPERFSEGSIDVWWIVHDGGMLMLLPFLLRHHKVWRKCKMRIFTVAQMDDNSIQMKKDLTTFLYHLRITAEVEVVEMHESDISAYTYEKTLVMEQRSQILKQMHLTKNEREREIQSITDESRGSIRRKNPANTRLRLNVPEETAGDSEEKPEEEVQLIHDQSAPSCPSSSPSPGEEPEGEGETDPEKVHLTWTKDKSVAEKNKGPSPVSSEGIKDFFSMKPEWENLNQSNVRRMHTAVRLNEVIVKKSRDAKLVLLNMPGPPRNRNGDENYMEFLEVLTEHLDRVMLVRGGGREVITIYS
Description: KCC2 modulator potency by thallium flux, dose response, cell-based, HEK293 KCC2, FluoZin-2 fluorescence (AID 1736).

As usually defined, the EC50 is the midpoint of the concentration-response curve. Low readings indicate an effect from little substance, high ones a need for much substance. As to `Cc1c(N=C2Nc3cccc4cccc2c34)c(=O)n(-c2ccccc2)n1C` [4-(2-benzo[cd]indolylamino)-1,5-dimethyl-2-phenyl-3-pyrazolone], the EC50 is 733 nM. This lies in the sub-micromolar range.

`O=C(NCCOc1ccccc1F)c1ccccc1SCc1ccc(F)cc1` [2-[(4-fluorobenzyl)thio]-N-[2-(2-fluorophenoxy)ethyl]benzamide] yielded an EC50 of 717 nM. In turn, `CC(=NNC(=O)c1ccc(Cl)c(Cl)c1)c1ccc(Br)s1` [N-[1-(5-bromo-2-thiophenyl)ethylideneamino]-3,4-dichlorobenzamide] gave a 50% effective concentration (EC50) of 1460 nM. This EC50 is about 2-fold higher than that of the compound before.

As to `O=C(NC(=S)NNC(=O)c1ccccc1O)c1ccco1` [Furan-2-carboxylic acid [N'-(2-hydroxy-benzoyl)-hydrazinocarbothioyl]-amide], for the setting “inactive by the depositor's call”, the concentration giving a half-maximal response (EC50) turned out to be 303000 nM. For `CSCCC(=O)N1CCCC(CNC(=O)c2ccc(-c3ccccc3)cc2)C1` (stereo not given) [MLS000733867], the 50% effective concentration (EC50) was 21000 nM. In other words, the double-digit micromolar range.
